The text below walks through data of patent US7750003B2, “Compounds-943” (AstraZeneca AB, priority 2006, dated 2010).

SMILES strings stand for the structures. pIC50: −log10 of the molar value.

Sequence of recombinant mTOR (FLAG-tagged, residues 1362-2549) (P42345 1362-2549): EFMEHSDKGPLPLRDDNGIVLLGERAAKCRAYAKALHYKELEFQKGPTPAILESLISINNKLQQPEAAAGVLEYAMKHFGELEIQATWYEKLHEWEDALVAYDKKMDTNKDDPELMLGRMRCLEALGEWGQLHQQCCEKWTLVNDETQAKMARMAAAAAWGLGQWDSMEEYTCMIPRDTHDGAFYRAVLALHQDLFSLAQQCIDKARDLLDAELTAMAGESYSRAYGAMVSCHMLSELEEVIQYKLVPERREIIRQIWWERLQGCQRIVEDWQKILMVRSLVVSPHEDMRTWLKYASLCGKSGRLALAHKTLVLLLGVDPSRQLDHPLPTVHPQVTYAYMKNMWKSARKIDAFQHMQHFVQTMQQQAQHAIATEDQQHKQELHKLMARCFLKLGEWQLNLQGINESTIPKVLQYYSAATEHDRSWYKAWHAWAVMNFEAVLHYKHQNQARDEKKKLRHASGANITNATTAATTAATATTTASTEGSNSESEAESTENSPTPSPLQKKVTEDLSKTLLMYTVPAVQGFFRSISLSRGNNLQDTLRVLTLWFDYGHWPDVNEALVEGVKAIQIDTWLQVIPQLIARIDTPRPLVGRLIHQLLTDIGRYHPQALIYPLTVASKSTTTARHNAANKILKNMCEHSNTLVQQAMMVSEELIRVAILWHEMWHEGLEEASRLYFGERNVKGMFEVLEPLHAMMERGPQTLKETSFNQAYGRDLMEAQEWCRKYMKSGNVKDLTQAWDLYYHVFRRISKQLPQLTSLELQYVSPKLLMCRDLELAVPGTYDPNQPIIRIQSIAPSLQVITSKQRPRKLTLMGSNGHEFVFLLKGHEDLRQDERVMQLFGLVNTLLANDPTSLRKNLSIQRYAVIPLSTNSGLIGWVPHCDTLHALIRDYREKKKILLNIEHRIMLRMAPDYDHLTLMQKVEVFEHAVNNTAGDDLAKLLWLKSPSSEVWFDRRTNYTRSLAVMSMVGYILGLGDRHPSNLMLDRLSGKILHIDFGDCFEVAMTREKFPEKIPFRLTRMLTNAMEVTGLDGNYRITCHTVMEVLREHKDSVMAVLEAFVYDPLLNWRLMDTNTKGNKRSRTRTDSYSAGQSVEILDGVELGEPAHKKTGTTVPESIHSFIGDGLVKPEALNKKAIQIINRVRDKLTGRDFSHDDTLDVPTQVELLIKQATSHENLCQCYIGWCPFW

This experiment addresses recombinant mTOR (FLAG-tagged, residues 1362-2549) (Homo sapiens, UniProt P42345). As to the kind of experiment: In vitro mTOR kinase assay (Test (a), AlphaScreen). The note with it: ATP 20 μM, read-out: Test (a): IC50 versus mTOR kinase. The format is biochemical. The essentials:
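AlphaScreen read-out: a phospho-T389 p70 S6K antibody on acceptor beads captures the phosphorylated biotin-peptide on donor beads, with signal loss indicating inhibition.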
Background: Alpha assays give light when donor and acceptor beads are brought close together.
For orientation: pIC50 means the negative decadic logarithm of the IC50, by convention in mol/L. For `Cc1oncc1NC(=O)Nc1ccc(-c2nc(CS(C)(=O)=O)cc(N3CCOC[C@@H]3C)n2)cc1` [Example 22e, 3-[4-[4-[(3S)-3-methylmorpholin-4-yl]-6-(methylsulfonylmethyl)pyrimidin-2-yl]phenyl]-1-(5-methyl-1,2-oxazol-4-yl)urea], the pIC50 was 6.25. As for `C[C@H]1COCCN1c1cc(CS(C)(=O)=O)nc(-c2ccc(NC(=O)Nc3cnn(C)c3)cc2)n1` [Example 22f, 1-[4-[4-[(3S)-3-methylmorpholin-4-yl]-6-(methylsulfonylmethyl)pyrimidin-2-yl]phenyl]-3-(1-methylpyrazol-4-yl)urea], the figure is 7.04; as for `C[C@H]1COCCN1c1cc(CS(C)(=O)=O)nc(-c2ccc(NC(=O)Nc3cc[nH]c(=O)c3)cc2)n1` [Example 22g, 1-[4-[4-[(3S)-3-methylmorpholin-4-yl]-6-(methylsulfonylmethyl)pyrimidin-2-yl]phenyl]-3-(2-oxo-1H-pyridin-4-yl)urea], 8.35; as for `Cc1nn(C)c(C)c1NC(=O)Nc1ccc(-c2nc(CS(C)(=O)=O)cc(N3CCOC[C@@H]3C)n2)cc1` [Example 22h, 3-[4-[4-[(3S)-3-methylmorpholin-4-yl]-6-(methylsulfonylmethyl)pyrimidin-2-yl]phenyl]-1-(1,3,5-trimethylpyrazol-4-yl)urea], 5.82. Consider `Cc1n[nH]c(C)c1NC(=O)Nc1ccc(-c2nc(CS(C)(=O)=O)cc(N3CCOC[C@@H]3C)n2)cc1` [Example 22i, 1-(3,5-dimethyl-1H-pyrazol-4-yl)-3-[4-[4-[(3S)-3-methylmorpholin-4-yl]-6-(methylsulfonylmethyl)pyrimidin-2-yl]phenyl]urea], for which the pIC50 was 5.37. Next, `CNC(=O)NC1CCN(c2nc(CS(C)(=O)=O)cc(N3CCOC[C@@H]3C)n2)CC1` [Example 23, 3-Methyl-1-[1-[4-[(3S)-3-methylmorpholin-4-yl]-6-(methylsulfonylmethyl)pyrimidin-2-yl]-4-piperidyl]urea]: 5.25; `CCNC(=O)NC1CCN(c2nc(CS(C)(=O)=O)cc(N3CCOC[C@@H]3C)n2)CC1` [Example 23a, 1-ethyl-3-[1-[4-[(3S)-3-methylmorpholin-4-yl]-6-(methylsulfonylmethyl)pyrimidin-2-yl]-4-piperidyl]urea]: 5.43; `C[C@H]1COCCN1c1cc(CS(C)(=O)=O)nc(-c2ccc(NC(=O)NCCc3ccccn3)cc2)n1` [Example 24, 1-[4-[4-[(3S)-3-Methylmorpholin-4-yl]-6-(methylsulfonylmethyl)pyrimidin-2-yl]phenyl]-3-(2-pyridin-2-ylethyl)urea]: 6.47. For the compound `C[C@H]1COCCN1c1cc(CS(C)(=O)=O)nc(-c2ccc(NC(=O)NCc3cccnc3)cc2)n1` [Example 24a, 1-[4-[4-[(3S)-3-methylmorpholin-4-yl]-6-(methylsulfonylmethyl)pyrimidin-2-yl]phenyl]-3-(pyridin-3-ylmethyl)urea], the pIC50 was 7.09. Turning to `CNC(=O)Nc1c(F)cc(-c2nc(N3CCOC[C@@H]3C)cc(C(C)(C)S(C)(=O)=O)n2)cc1F` [Example 24ab, 1-[2,6-difluoro-4-[4-[(3S)-3-methylmorpholin-4-yl]-6-(2-methylsulfonylpropan-2-yl)pyrimidin-2-yl]phenyl]-3-methyl-urea], the negative logarithm of the IC50 (pIC50) was 7.38. Next, `CCNC(=O)Nc1c(F)cc(-c2nc(N3CCOC[C@@H]3C)cc(C(C)(C)S(C)(=O)=O)n2)cc1F` [Example 24ac, 3-[2,6-difluoro-4-[4-[(3S)-3-methylmorpholin-4-yl]-6-(2-methylsulfonylpropan-2-yl)pyrimidin-2-yl]phenyl]-1-ethyl-urea]: 7.32; `C[C@H]1COCCN1c1cc(C(C)(C)S(C)(=O)=O)nc(-c2cc(F)c(NC(=O)NC3CC3)c(F)c2)n1` [Example 24ad, 3-cyclopropyl-1-[2,6-difluoro-4-[4-[(3S)-3-methylmorpholin-4-yl]-6-(2-methylsulfonylpropan-2-yl)pyrimidin-2-yl]phenyl]urea]: 6.29; `C[C@H]1COCCN1c1cc(C(C)(C)S(C)(=O)=O)nc(-c2cc(F)c(NC(=O)NCc3cnn(C)c3)c(F)c2)n1` [Example 24ae, 1-[2,6-difluoro-4-[4-[(3S)-3-methylmorpholin-4-yl]-6-(2-methylsulfonylpropan-2-yl)pyrimidin-2-yl]phenyl]-3-[(1-methylpyrazol-4-yl)methyl]urea]: 6.62.

As for `C[C@H]1COCCN1c1cc(CS(C)(=O)=O)nc(-c2ccc(NC(=O)NCCc3c[nH]cn3)cc2)n1` [Example 24b, 3-[2-(1H-imidazol-4-yl)ethyl]-1-[4-[4-[(3S)-3-methylmorpholin-4-yl]-6-(methylsulfonylmethyl)pyrimidin-2-yl]phenyl]urea], the pIC50 is 7.42. Next, `CNC(=O)Nc1ncc(-c2nc(N3CCOC[C@@H]3C)cc(C(C)(C)S(C)(=O)=O)n2)cn1` [Example 24bh, 3-methyl-1-[5-[4-[(3S)-3-methylmorpholin-4-yl]-6-(2-methylsulfonylpropan-2-yl)pyrimidin-2-yl]pyrimidin-2-yl]urea]: 7.92; `C[C@H]1COCCN1c1cc(C(C)(C)S(C)(=O)=O)nc(-c2ccc(NC(=O)NCc3cnn(C)c3)nc2)n1` [Example 24bi, 1-[5-[4-[(3S)-3-methylmorpholin-4-yl]-6-(2-methylsulfonylpropan-2-yl)pyrimidin-2-yl]pyridin-2-yl]-3-[(1-methylpyrazol-4-yl)methyl]urea]: 6.37; `C[C@H]1COCCN1c1cc(C(C)(C)S(C)(=O)=O)nc(-c2ccc(NC(=O)NCCO)cc2)n1` [Example 24bj, 3-(2-hydroxyethyl)-1-[4-[4-[(3S)-3-methylmorpholin-4-yl]-6-(2-methylsulfonylpropan-2-yl)pyrimidin-2-yl]phenyl]urea]: 7.29.

Take `Cc1cnc(CNC(=O)Nc2ccc(-c3nc(CS(C)(=O)=O)cc(N4CCOC[C@@H]4C)n3)cc2)cn1` [Example 24c, 3-[4-[4-[(3S)-3-methylmorpholin-4-yl]-6-(methylsulfonylmethyl)pyrimidin-2-yl]phenyl]-1-[(5-methylpyrazin-2-yl)methyl]urea]: the negative logarithm of the IC50 (pIC50) was 6.25. Turning to `C[C@H]1COCCN1c1cc(CS(C)(=O)=O)nc(-c2ccc(NC(=O)NCc3ccccn3)cc2)n1` [Example 24d, 1-[4-[4-[(3S)-3-methylmorpholin-4-yl]-6-(methylsulfonylmethyl)pyrimidin-2-yl]phenyl]-3-(pyridin-2-ylmethyl)urea], the pIC50 is 5.36. Turning to `C[C@H]1COCCN1c1cc(CS(C)(=O)=O)nc(-c2ccc(NC(=O)NCc3ccncc3)cc2)n1` [Example 24e, 1-[4-[4-[(3S)-3-methylmorpholin-4-yl]-6-(methylsulfonylmethyl)pyrimidin-2-yl]phenyl]-3-(pyridin-4-ylmethyl)urea], the pIC50 is 6.09. Next, `C[C@H]1COCCN1c1cc(CS(C)(=O)=O)nc(-c2ccc(NC(=O)NCc3cnn(C)c3)cc2)n1` [Example 24g, 1-[4-[4-[(3S)-3-methylmorpholin-4-yl]-6-(methylsulfonylmethyl)pyrimidin-2-yl]phenyl]-3-[(1-methylpyrazol-4-yl)methyl]urea]: 6.51; `Cc1cc(CNC(=O)Nc2ccc(-c3nc(CS(C)(=O)=O)cc(N4CCOC[C@@H]4C)n3)cc2)no1` [Example 24h, 3-[4-[4-[(3S)-3-methylmorpholin-4-yl]-6-(methylsulfonylmethyl)pyrimidin-2-yl]phenyl]-1-[(5-methyl-1,2-oxazol-3-yl)methyl]urea]: 5.36. Next, `C[C@H]1COCCN1c1cc(CS(C)(=O)=O)nc(-c2ccc(NC(=O)NCc3cccc(N(C)C)c3)cc2)n1` [Example 24i, 3-[(3-dimethylaminophenyl)methyl]-1-[4-[4-[(3S)-3-methylmorpholin-4-yl]-6-(methylsulfonylmethyl)pyrimidin-2-yl]phenyl]urea]: 6.48; `C[C@H]1COCCN1c1cc(CS(C)(=O)=O)nc(-c2ccc(NC(=O)NCc3cncs3)cc2)n1` [Example 24j, 1-[4-[4-[(3S)-3-methylmorpholin-4-yl]-6-(methylsulfonylmethyl)pyrimidin-2-yl]phenyl]-3-(1,3-thiazol-5-ylmethyl)urea]: 6.66. With `CNC(=O)Nc1ccn(-c2nc(CS(C)(=O)=O)cc(N3CCOC[C@@H]3C)n2)n1` [Example 24k, 3-methyl-1-[1-[4-[(3S)-3-methylmorpholin-4-yl]-6-(methylsulfonylmethyl)pyrimidin-2-yl]pyrazol-3-yl]urea], the negative-log IC50 (pIC50) is 6.74. Next, `CCNC(=O)Nc1ccn(-c2nc(CS(C)(=O)=O)cc(N3CCOC[C@@H]3C)n2)n1` [Example 24l, 1-ethyl-3-[1-[4-[(3S)-3-methylmorpholin-4-yl]-6-(methylsulfonylmethyl)pyrimidin-2-yl]pyrazol-3-yl]urea]: 6.08; `C[C@H]1COCCN1c1cc(CS(C)(=O)=O)nc(-n2ccc(NC(=O)NC3CC3)n2)n1` [Example 24m, 3-cyclopropyl-1-[1-[4-[(3S)-3-methylmorpholin-4-yl]-6-(methylsulfonylmethyl)pyrimidin-2-yl]pyrazol-3-yl]urea]: 6.19; `CNC(=O)NC1CCN(c2nc(N3CCOC[C@@H]3C)cc(C(C)(C)S(C)(=O)=O)n2)CC1` [Example 24n, 3-methyl-1-[1-[4-[(3S)-3-methylmorpholin-4-yl]-6-(2-methylsulfonylpropan-2-yl)pyrimidin-2-yl]-4-piperidyl]urea]: 5.49. Regarding `CCNC(=O)NC1CCN(c2nc(N3CCOC[C@@H]3C)cc(C(C)(C)S(C)(=O)=O)n2)CC1` [Example 24o, 1-ethyl-3-[1-[4-[(3S)-3-methylmorpholin-4-yl]-6-(2-methylsulfonylpropan-2-yl)pyrimidin-2-yl]-4-piperidyl]urea], the negative logarithm of the IC50 (pIC50) was 5.47. As for `C[C@H]1COCCN1c1cc(C(C)(C)S(C)(=O)=O)nc(N2CCC(NC(=O)NC3CC3)CC2)n1` [Example 24p, 3-cyclopropyl-1-[1-[4-[(3S)-3-methylmorpholin-4-yl]-6-(2-methylsulfonylpropan-2-yl)pyrimidin-2-yl]-4-piperidyl]urea], the figure is 6.05.
